Series [1] deals with slime. Nature of the series: Attachment of slime on a synthetic rubber test board in circulating test water apparatus. The note with it: 120 hours after start of test; agent concentrations as in each example. On the procedure:
(§1) From a water tank 1 holding 15 liters of water, test water was passed at a rate of 10 liters/minute through a column 3 and returned to the water tank 1 using a circulating pump 2. In the column 3, a test board made of a synthetic rubber and having a surface area of 40 cm^2 was disposed to a supporting pole to measure the amount of attachment of slime.
(§2) In a water tank 4, test liquid for supplement prepared in advance was stored and transferred into the water tank 1 at a rate of 5 ml/minute using a pump for an agent 5. The test liquid for supplement was prepared by adding calcium chloride and sodium hydrogencarbonate to city water, which was dechlorinated by passing through a column of active carbon, in amounts such that the calcium hardness was 150 mg CaCO3/liter and the acid consumption (pH 4.8) was 150 mg CaCO3/liter. As the nutrient for microorganisms, 100 mg/liter of citric acid was added. To the obtained solution, a test agent was added and pH was adjusted at 8.5 by adding sodium hydroxide.
(§3) When the test was started, dirt was added into the water in the water tank 1 in an amount such that the turbidity of the water was 50. As the dirt, a concentrated liquid of reverse washing discharged from filters for industrial water in Chiba area was used. The dirt was added into the water tank 1 in an amount corresponding to a turbidity of 25 at each time when 48 hours and 96 hours had passed after the start of the test.
(§4) The number of microorganisms in the circulating water and the turbidity of the circulating water were measured 48 hours, 72 hours and 120 hours after the start of the test. The test board of synthetic rubber attached to the column 3 was taken out 120 hours after the start of the test. After slime attached to the test board was cleaved and dried to the constant weight at 105° C., the weight of the slime was measured and the amount of the attached slime was obtained.
(§5) As part A of the test agent, a mixed liquid composed of 40% by weight of an aqueous solution of sodium hypochlorite having a concentration of effective chlorine of 12% by weight, 8% by weight of a sulfamic acid, 10% by weight of sodium hydroxide and 42% by weight of water was used. This mixed liquid is a solution conventionally used as the agent for preventing formation of slime. As part B of the agent, an anionic polymer or a phosphonic acid was used.

The test system of series [2] is sludge. Briefly: Accumulation of sludge at the bottom of the water tank of the circulating test water apparatus. Conditions: 120 hours after start of test; agent concentrations as in each example. The procedure:
as §1, §2, §3
A valve 6 at a lower portion of the water tank 1 was opened and the water in the water tank 1 was removed 120 hours after the start of the test. The valve 6 was then closed again. Into the water tank 1, 200 ml of pure water was added and dirt accumulated at the lower portion of the water tank was suspended using a brush. The valve was opened and the formed suspension was taken out. After the dirt was separated using a centrifuge and dried to the constant weight at 105° C., the weight of the dirt was measured and the amount of accumulated sludge was obtained.
as §5

Series [3] concerns microorganisms in the circulating water. Nature of the series: Number of microorganisms in the circulating water. The procedure:
as §1, §2, §3, §4, §5

Series [4] can be described thus: Storage stability of effective chlorine in the composition at 40° C. shielded from light. The series is classed as physicochemical. The note with it: for concentration of effective chlorine remained: pH 14; for Fraction of remaining effective chlorine: pH of composition 14, 40° C. The procedure: A composition composed of 40% by weight of an aqueous solution of sodium hypochlorite having a concentration of effective chlorine of 12% by weight, 8% by weight of sulfamic acid, 10% by weight of an anionic polymer or a phosphonic acid and the remaining amount of sodium hydroxide and water was prepared. pH of the composition was adjusted by changing the amount of sodium hydroxide. The prepared composition was stored in a vessel kept at the constant temperature of 40° C. and shielded from light. The concentration of the effective chlorine was measured after the composition was stored for a prescribed time.
For the measurement of the concentration of the effective chlorine, a residual chlorine meter manufactured by HACH Company and a reagent specific for this measurement were used. BELCREN (the weight-average molecular weight: 2730) manufactured by GREAT LAKES CHEMICAL Company was used as the polymaleic acid. ISOBAN (the weight-average molecular weight: 10,800) manufactured by KURARAY Co., Ltd. was used as the maleic acid-isobutylene copolymer. AQUARICK GL (the weight-average molecular weight: 10,700) manufactured by NIPPON SHOKUBAI Co., Ltd. was used as the acrylic acid-hydroxyallyloxypropanesulfonic acid copolymer. DEQUEST 2010 manufactured by MONSANTO Company was used as 1-hydroxyethylidene-1,1-diphosphonic acid. BAYHIBIT AM manufactured by BAYER Company was used as 2-phosphonobutane-1,2,4-tricarboxylic acid. BELCORE 575 manufactured by GREAT LAKES Company was used as hydroxyphosphonoacetic acid.

We go through six compounds from patent publication US7285221B2, “Composition for preventing of slime and method for preventing slime” (Kurita Water Industries, Ltd., priority 2002, dated 2007).

The structures appear in SMILES notation.

Take `CC(O)(P(=O)(O)O)P(=O)(O)O` [Comparative Example 8, 1-hydroxyethylidene-1,1-diphosphonic acid]: the “Attachment of slime amount” value in series [1] worked out at 17.3 mg/dm^2. Moreover, the “Accumulation of sludge amount” value in series [2] is 42.8 mg. The “Number of microorganisms in circulating water” value (“Number … in circulating water” below) in series [3] (after 48 hours) was determined as 720000 mL⁻¹; in series [3] (after 72 hours), 550000 mL⁻¹; in series [3] (after 120 hours) it was 490000 mL⁻¹. Besides, the “number of microorganisms in the circulating water, in words” value in series [3] (comparison in words, no time point) was “not substantially different”.
As to `CC(O)(P(=O)(O)O)P(=O)(O)O` [Comparative Example 9, 1-hydroxyethylidene-1,1-diphosphonic acid], the “Attachment of slime amount” value in series [1] stood at 16.1 mg/dm^2. Also, the “Accumulation of sludge amount” value in series [2] is 39.6 mg. Further, the “Number … in circulating water” value was determined as 1.3e+06 mL⁻¹ in series [3] (after 48 hours), 490000 mL⁻¹ in series [3] (after 72 hours) and 680000 mL⁻¹ in series [3] (after 120 hours).
For `O=C(O)CCC(CC(=O)O)(C(=O)O)P(=O)(O)O` (stereo not shown) [Comparative Example 10, 2-phosphonobutane-1,2,4-tricarboxylic acid] the same measures were 19.2 mg/dm^2, 55.5 mg, 670000 mL⁻¹, 840000 mL⁻¹ and 420000 mL⁻¹.
With `O=C(O)CCC(CC(=O)O)(C(=O)O)P(=O)(O)O` (stereo not shown) [Comparative Example 11, 2-phosphonobutane-1,2,4-tricarboxylic acid], in series [1], the “Attachment of slime amount” value worked out at 16.5 mg/dm^2. For the same compound, the “Accumulation of sludge amount” value in series [2] was 48.8 mg. Further, the “Number … in circulating water” value in series [3] (after 48 hours) was determined as 3.8e+06 mL⁻¹; in series [3] (after 72 hours), 890000 mL⁻¹; in series [3] (after 120 hours), 760000 mL⁻¹.
For `O=C(O)C(O)P(=O)(O)O` (stereo not shown) [Comparative Example 13, hydroxy-phosphonoacetic acid] the same measures were 16.5 mg/dm^2, 51.1 mg, 660000 mL⁻¹, 350000 mL⁻¹ and 490000 mL⁻¹.
For `OCl` [sodium hypochlorite], the “concentration of effective chlorine remained” value in series [4] (after 3 month) is recorded as “about 20%”; in series [4] (after one month) it was “about 60%”. In addition, the “Fraction of remaining effective chlorine” value in series [4] (after 7 days) is recorded as 91%; in series [4] (after 30 days) it was 59%; in series [4] (after 90 days), 18%.
